In patent US7989203B2, “Methods for use of apoptotic cells to deliver antigen to dendritic cells for induction or tolerization of T cells” (The Rockefeller University, priority 1998, dated 2011):
“Also recorded” adds a separate entry of the source. Where two headings read alike, the source gives them in different places. *: point of attachment. Cbz = O=C(OCc1ccccc1)*

Legend:
[1] = test system: immature DCs; format: cell-based, human; details: for Percent Inhibition of phagocytosis of apoptotic cells: immature DC/apoptotic cell coculture, averages of 2-4 experiments
[2] = test system: DCs; format: cell-based, human
[3] = target: phospholipase D; details: footnote to Table II; cited from earlier work
[4] = test system: influenza-infected monocytes; format: cell-based, human; details: concentrations which inhibited apoptosis of the infected monocytes; 7 days
[5] = test system: influenza-infected monocytes; format: cell-based, human; details: determined by TUNEL; without affecting expression of viral proteins
[6] = target: protein kinase C; details: footnote to Table II; cited from earlier work
[7] = test system: DCs; assay: Y-Ae epitope (I-Ab/I-E peptide complex) formation on DCs cultured with B blasts (FACS); format: cell-based, mouse; details: DCs cultured 20 h with B blasts
Experimental: [FIG. 11B]: Y-Ae epitope formation is blocked by NH4Cl. DCs were cultured 20 h with B blasts with or without NH4Cl at 5-20 mM. The cultures were stained for Y-Ae and CD86.
Antibodies. The Y-Ae hybridoma was generously provided by Dr. C. Janeway, Yale University, New Haven Conn. and grown serum-free. The IgG2b antibody was purified on protein A sepharose, biotinylated, and used in the FACS along with PE-streptavidin to detect MHC class II-peptide complexes (75,76) with a mouse IgG2b anti-human TCR antibody as the non-reactive control [PharMingen, San Diego Calif.]. The cells were double labeled for FACS and for microscopy with FITC antibodies to CD8, CD11c, CD86, I-Ab [AF6-120.1], 1-Ad, and I-E [14-4-4S][PharMingen].
Capture of cell-derived peptides in vitro. Bone marrow DCs were generated in 24 well plates for 6 days in GM-CSF, gently washed to remove mature floating DCs, and then fed B blasts, human cells, or a peptide [residues 56-73 of 1-Eα]. Before adding I-E^+ cells or peptide, the DCs were immature, since much of the MHC class II was in intracellular lysosomal compartments and CD86 was not expressed at the surface (84) After uptake of I-E, the DCs matured with high levels of surface MHC II and CD86.

## O=C(O)CN(CCN(CC(=O)O)CC(=O)O)CC(=O)O [EDTA]
[1]
  inhibition of phagocytosis of apoptotic cells by immature DCs (in words): inhibitory

## C=C1[C@@H](C)[C@H]2[C@H](Cc3ccccc3)NC(=O)[C@]23[C@H](OC(C)=O)/C=C/[C@@](C)(O)C(=O)[C@@H](C)C/C=C/[C@H]3[C@@H]1O [Cytochalasin D]
[1]; concentration not given
  inhibition of phagocytosis of apoptotic cells by immature DCs (in words): blocked uptake

## O=C(O)c1cc(N(Cc2ccccc2O)Cc2cc(O)ccc2O)ccc1O [LA, Lavendustin A]
[1]; 10 μM
  Percent Inhibition of phagocytosis of apoptotic cells: 14%
[1]; 40 μM
  Percent Inhibition of phagocytosis of apoptotic cells: 41.5%

## CC(=O)N[C@@H](CSC(=O)[C@]1([C@@H](O)C(C)C)NC(=O)[C@H](C)[C@@H]1O)C(=O)O [Lactacystin]
[2]; unpublished data, concentration not given
  antigen presentation by the uninfected DCs: only partially blocked

## Herbamycin A
[1]; 1.8 μM
  Percent Inhibition of phagocytosis of apoptotic cells: 6.5%
[1]; 9 μM
  Percent Inhibition of phagocytosis of apoptotic cells: 49%
[1]; 18 μM
  Percent Inhibition of phagocytosis of apoptotic cells: 66.5%
[3]
  IC50, PDGF-induced phospholipase D activation: ^§Herbamycin A is a potent cell-permeable protein tyrosine kinase inhibitor and inhibits PDGF-induced phospholipase D activation (IC50 = 8 μg/ml) in a dose dependant manner.

## C[C@H]1CCC/C=C/[C@@H]2C[C@H](O)C[C@H]2[C@H](O)/C=C/C(=O)O1 [BFA, Brefeldin A]
[2]; DCs preincubated with 6 ug/ml
  DCs ability to present antigenic material on MHC class I: completely inhibited

## Cbz-Val-Ala-Asp-aldehyde
[4]
  generation of virus-specific CTLs after transfer of medium from treated infected monocytes to T cells and uninfected DCs: virus-specific CTLs were not generated
[5]
  apoptosis of influenza-infected monocytes: block apoptosis

## COc1ccc2c(c[n+](C)c3c4cc5c(cc4ccc23)OCO5)c1OC.[Cl-] [CC, Chelethrine chloride]
[1]; 12 μM
  Percent Inhibition of phagocytosis of apoptotic cells: 4%
[6]
  IC50: 660 nM

## TSP: purified TSP (thrombospondin)
[1]; concentration not given
  inhibition of phagocytosis of apoptotic cells by immature DCs (in words): nor the addition of purified TSP to DC/apoptotic cell co-cultures has an inhibitory effect

## Cl.N [NH4Cl, ammonium chloride]
[2]
  DCs ability to present antigenic material on MHC class I: completely inhibited
[7]; 5 mM
  Y-Ae development (epitope formation): partially
[7]; 20 mM
  Y-Ae development (epitope formation): totally blocked; also recorded: completely blocked

## O=C(O)c1cc(N(Cc2ccccc2O)Cc2ccccc2O)ccc1O [LB, Lavendustin B]
[1]; 10 μM
  Percent Inhibition of phagocytosis of apoptotic cells: 0%
[1]; 40 μM
  Percent Inhibition of phagocytosis of apoptotic cells: 0%
